Source: patent US9765068B2, “PRMT5 inhibitors and uses thereof” (Epizyme, Inc., priority 2012, dated 2017)

molecular target: PRMT5/MEP50 (Homo sapiens (Human), UniProt O14744); test: PRMT5 Biochemical Assay (PRMT5/MEP50 enzyme assay on peptide substrate, 3H-SAM Flashplate); conditions: PRMT5/MEP50 4 nM, 3H-SAM 75 nM, peptide 40 nM
From the text: General Materials. S-adenosylmethionine (SAM), S-adenosylhomocysteine (SAH), bicine, KCl, Tween20, dimethylsulfoxide (DMSO), bovine skin gelatin (BSG), and Tris(2-carboxyethyl)phosphine hydrochloride solution (TCEP) were purchased from Sigma-Aldrich at the highest level of purity possible. ^3H-SAM was purchase from American Radiolabeled Chemicals with a specific activity of 80 Ci/mmol. 384-well streptavidin Flashplates were purchased from PerkinElmer.
Substrates. Peptide representative of human histone H4 residues 1-15 was synthesized with a C-terminal linker-affinity tag motif and a C-terminal amide cap by 21st Century Biochemicals. […] The sequence was Ac-[…][K-Biot]-amide (SEQ ID NO.:3).
Full-length human MEP50 (NM_024102) clone was amplified from a human testis cDNA library incorporating a 5′ sequence encoding a 6-histidine tag (MHHHHHH) (SEQ ID NO.:5) fused directly to Arg 2 of MEP50. The amplified genes were sublconed into pENTR/D/TEV (Life Technologies) and subsequently transferred by Gateway™ attL×attR recombination to pDEST8 baculvirus expression vector (Life Technologies).
Protein Expression. Recombinant baculovirus and Baculovirus-Infected Insect Cells (BIIC) were generated according to Bac-to-Bac kit instructions (Life Technologies) and Wasilko, 2006, respectively. Protein over-expression was accomplished by infecting exponentially growing Spodoptera frugiperda (SF9) cell culture at 1.2×10^6 cell/ml with a 5000 fold dilution of BIIC stock. Infections were carried out at 27° C. for 72 hours, harvested by centrifugation, and stored at −80° C. for purification.
Protein Purification. […] Flag-PRMT5/6His-MeP50 was eluted with 300 mM Imidazole in the same buffer. […] Reference: Wasilko, D. J. and S. E. Lee: “TIPS: titerless infected-cells preservation and scale-up” Bioprocess J., 5 (2006), pp. 29-32.
General Procedure for PRMT5/MEP50 Enzyme Assays on Peptide Substrates.
The assays were all performed in a buffer consisting of 20 mM Bicine (pH=7.6), 1 mM TCEP, 0.005% BSG, and 0.002% Tween20, prepared on the day of use. Compounds in 100% DMSO (1 ul) were spotted into a polypropylene 384-well V-bottom plates (Greiner) using a Platemate Plus outfitted with a 384-channel head (Thermo Scientific). DMSO (1 ul) was added to Columns 11, 12, 23, 24, rows A-H for the maximum signal control and 1 ul of SAH, a known product and inhibitor of PRMT5/MEP50, was added to columns 11, 12, 23, 24, rows I-P for the minimum signal control. A cocktail (40 ul) containing the PRMT5/MEP50 enzyme and the peptide was added by Multidrop Combi (Thermo-Fisher). The compounds were allowed to incubate with PRMT5/MEP50 for 30 min at 25 degrees Celsius, then a cocktail (10 ul) containing ^3H-SAM was added to initiate the reaction (final volume=51 ul). The final concentrations of the components were as follows: PRMT5/MEP50 was 4 nM, ^3H-SAM was 75 nM, peptide was 40 nM, SAH in the minimum signal control wells was 100 uM, and the DMSO concentration was 1%. The assays were stopped by the addition of non-radioactive SAM (10 ul) to a final concentration of 600 uM, which dilutes the ^3H-SAM to a level where its incorporation into the peptide substrate is no longer detectable. 50 ul of the reaction in the 384-well polypropylene plate was then transferred to a 384-well Flashplate and the biotinylated peptides were allowed to bind to the streptavidin surface for at least 1 hour before being washed three times with 0.1% Tween20 in a Biotek ELx405 plate washer. The plates were then read in a PerkinElmer TopCount plate reader to measure the quantity of ^3H-labeled peptide bound to the Flashplate surface, measured as disintegrations per minute (dpm) or alternatively, referred to as counts per minute (cpm).
[formula] Where dpm=disintegrations per minute, cmpd=signal in assay well, and min and max are the respective minimum and maximum signal controls.

PRMT5/MEP50, sequence (O14744 other isoform, or with tags, fused parts or gaps): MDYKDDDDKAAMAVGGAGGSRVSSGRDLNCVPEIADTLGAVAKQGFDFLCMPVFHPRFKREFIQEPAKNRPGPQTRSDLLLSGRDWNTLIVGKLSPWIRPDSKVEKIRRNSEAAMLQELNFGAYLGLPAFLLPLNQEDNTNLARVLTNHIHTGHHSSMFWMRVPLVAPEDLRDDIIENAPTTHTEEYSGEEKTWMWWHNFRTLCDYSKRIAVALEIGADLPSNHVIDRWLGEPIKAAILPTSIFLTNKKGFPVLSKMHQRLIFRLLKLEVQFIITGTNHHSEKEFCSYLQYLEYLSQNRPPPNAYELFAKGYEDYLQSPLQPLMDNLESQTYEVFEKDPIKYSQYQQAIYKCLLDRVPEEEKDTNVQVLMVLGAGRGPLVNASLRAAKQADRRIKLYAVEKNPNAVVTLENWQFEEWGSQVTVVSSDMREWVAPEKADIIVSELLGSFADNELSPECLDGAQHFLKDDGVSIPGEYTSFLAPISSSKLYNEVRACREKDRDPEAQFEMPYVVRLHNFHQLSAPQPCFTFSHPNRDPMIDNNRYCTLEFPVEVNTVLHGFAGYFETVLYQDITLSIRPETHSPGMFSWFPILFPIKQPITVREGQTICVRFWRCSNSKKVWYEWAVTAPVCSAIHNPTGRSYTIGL
PRMT5/MEP50, sequence (Q9BQA1 other isoform, or with tags, fused parts or gaps partner): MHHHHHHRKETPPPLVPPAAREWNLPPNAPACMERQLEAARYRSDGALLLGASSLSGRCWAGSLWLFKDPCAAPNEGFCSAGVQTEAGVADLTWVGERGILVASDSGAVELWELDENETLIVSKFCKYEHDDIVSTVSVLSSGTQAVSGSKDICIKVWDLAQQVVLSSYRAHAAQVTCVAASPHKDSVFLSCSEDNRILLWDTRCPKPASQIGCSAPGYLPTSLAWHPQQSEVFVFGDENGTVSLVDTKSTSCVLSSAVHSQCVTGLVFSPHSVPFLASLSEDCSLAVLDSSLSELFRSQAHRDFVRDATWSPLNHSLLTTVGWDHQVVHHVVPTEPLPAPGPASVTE

| Compound | IC50 |
| --- | --- |
| O=C(COc1ccccc1)NCC(O)CN1CCc2ccccc2C1 (stereo not shown) [Compound 1, N-(3-(3,4-dihydroisoquinolin-2(1H)-yl)-2-hydroxypropyl)-2-phenoxyacetamide] | 101 to 1000 nM |
| O=C(CCc1ccccc1)NCC(O)CN1CCc2ccccc2C1 (stereo not shown) [Compound 2] | 1000 to 10000 nM |
| CN(CC(O)CN1CCc2ccccc2C1)C(=O)CCc1ccccc1 (stereo not shown) [Compound 3] | 1000 to 10000 nM |
| CN(CC(O)CN1CCc2ccccc2C1)C(=O)COc1ccccc1 (stereo not shown) [Compound 5] | 10000 to 50000 nM |
| O=C(COc1cccc(F)c1)NCC(O)CN1CCc2ccccc2C1 (stereo not shown) [Compound 7, N-(3-(3,4-dihydroisoquinolin-2(1H)-yl)-2-hydroxypropyl)-2-(3-fluorophenoxy)acetamide] | 101 to 1000 nM |
| N#Cc1cccc(OCC(=O)NCC(O)CN2CCc3ccccc3C2)c1 (stereo not shown) [Compound 8, 2-(3-cyanophenoxy)-N-(3-(3,4-dihydroisoquinolin-2(1H)-yl)-2-hydroxypropyl)acetamide] | 101 to 1000 nM |
| Cc1ccc(OCC(=O)NCC(O)CN2CCc3ccccc3C2)cc1 (stereo not shown) [Compound 9, N-(3-(3,4-dihydroisoquinolin-2(1H)-yl)-2-hydroxypropyl)-2-(p-tolyloxy)acetamide] | 101 to 1000 nM |
| O=C(COc1ccc(F)cc1)NCC(O)CN1CCc2ccccc2C1 (stereo not shown) [Compound 10] | 1000 to 10000 nM |
| N#Cc1ccc(OCC(=O)NCC(O)CN2CCc3ccccc3C2)cc1 (stereo not shown) [Compound 11] | 101 to 1000 nM |
| COc1ccc(OCC(=O)NCC(O)CN2CCc3ccccc3C2)cc1 (stereo not shown) [Compound 12, N-(3-(3,4-dihydroisoquinolin-2(1H)-yl)-2-hydroxypropyl)-2-(4-methoxyphenoxy)acetamide] | 101 to 1000 nM |
| NC(=O)c1ccc(OCC(=O)NCC(O)CN2CCc3ccccc3C2)cc1 (stereo not shown) [Compound 13] | 1000 to 10000 nM |
| CS(=O)(=O)c1ccc(OCC(=O)NCC(O)CN2CCc3ccccc3C2)cc1 (stereo not shown) [Compound 14] | 1000 to 10000 nM |
| Cc1ccccc1OCC(=O)NCC(O)CN1CCc2ccccc2C1 (stereo not shown) [Compound 15, N-(3-(3,4-dihydroisoquinolin-2(1H)-yl)-2-hydroxypropyl)-2-(o-tolyloxy)acetamide] | 101 to 1000 nM |
| O=C(COc1ccccc1F)NCC(O)CN1CCc2ccccc2C1 (stereo not shown) [Compound 16] | 101 to 1000 nM |
| N#Cc1ccccc1OCC(=O)NCC(O)CN1CCc2ccccc2C1 (stereo not shown) [Compound 17] | 101 to 1000 nM |
| O=C(CNc1ccccc1)NCC(O)CN1CCc2ccccc2C1 (stereo not shown) [Compound 18] | 1000 to 10000 nM |
| CC(=O)Nc1ccc(OCC(=O)NCC(O)CN2CCc3ccccc3C2)cc1 (stereo not shown) [Compound 21, 2-(4-acetamidophenoxy)-N-(3-(3,4-dihydroisoquinolin-2(1H)-yl)-2-hydroxypropyl)acetamide] | 101 to 1000 nM |
| O=C(COC1CCCCC1)NCC(O)CN1CCc2ccccc2C1 (stereo not shown) [Compound 24, 2-(cyclohexyloxy)-N-(3-(3,4-dihydroisoquinolin-2(1H)-yl)-2-hydroxypropyl)acetamide] | 101 to 1000 nM |
| CC(C)(Oc1ccccc1)C(=O)NCC(O)CN1CCc2ccccc2C1 (stereo not shown) [Compound 25, N-(3-(3,4-dihydroisoquinolin-2(1H)-yl)-2-hydroxypropyl)-2-methyl-2-phenoxypropanamide] | 101 to 1000 nM |
| NC(=O)c1ccccc1OCC(=O)NCC(O)CN1CCc2ccccc2C1 (stereo not shown) [Compound 29] | 101 to 1000 nM |
| CC(=O)Nc1cccc(OCC(=O)NCC(O)CN2CCc3ccccc3C2)c1 (stereo not shown) [Compound 31, 2-(3-acetamidophenoxy)-N-(3-(3,4-dihydroisoquinolin-2(1H)-yl)-2-hydroxypropyl)acetamide] | 1000 to 10000 nM |
| O=C(COc1ccccc1)NC[C@H](O)CN1CCc2ccccc2C1 [Compound 32] | 101 to 1000 nM |
| O=C(COc1ccccc1)NC[C@@H](O)CN1CCc2ccccc2C1 [Compound 33] | 1000 to 10000 nM |
| NC(=O)c1cccc(OCC(=O)NCC(O)CN2CCc3ccccc3C2)c1 (stereo not shown) [Compound 34, 3-(2-((3-(3,4-dihydroisoquinolin-2(1H)-yl)-2-hydroxypropyl)amino)-2-oxoethoxy)benzamide] | 101 to 1000 nM |
| CN(C)c1ccc(OCC(=O)NCC(O)CN2CCc3ccccc3C2)cc1 (stereo not shown) [Compound 35] | 101 to 1000 nM |

| Compound | IC50 |
| --- | --- |
| CC(=O)Nc1ccccc1OCC(=O)NCC(O)CN1CCc2ccccc2C1 (stereo not shown) [Compound 36] | 101 to 1000 nM |
| O=C(COC1CCOCC1)NCC(O)CN1CCc2ccccc2C1 (stereo not shown) [Compound 41] | 1000 to 10000 nM |
| CS(=O)(=O)Nc1ccc(OCC(=O)NCC(O)CN2CCc3ccccc3C2)cc1 (stereo not shown) [Compound 42] | 101 to 1000 nM |
| O=C(COc1cccc2cccnc12)NC[C@H](O)CN1CCc2ccccc2C1 [Compound 44, (S)—N-(3-(3,4-dihydroisoquinolin-2(1H)-yl)-2-hydroxypropyl)-2-(quinolin-8-yloxy)acetamide] | 101 to 1000 nM |
| Cn1cnc2cc(OCC(=O)NCC(O)CN3CCc4ccccc4C3)ccc21 (stereo not shown) [Compound 46, N-(3-(3,4-dihydroisoquinolin-2(1H)-yl)-2-hydroxypropyl)-2-((1-methyl-1H-benzo[d]imidazol-5-yl)oxy)acetamide] | 101 to 1000 nM |
| O=C(Cc1ccncc1)NCC(O)CN1CCc2ccccc2C1 (stereo not shown) [Compound 51] | 10000 to 50000 nM |
| NS(=O)(=O)c1ccc(OCC(=O)NCC(O)CN2CCc3ccccc3C2)cc1 (stereo not shown) [Compound 52] | 1000 to 10000 nM |
| Cn1nccc1-c1cccc(CC(=O)NCC(O)CN2CCc3ccccc3C2)c1 (stereo not shown) [Compound 54, N-(3-(3,4-dihydroisoquinolin-2(1H)-yl)-2-hydroxypropyl)-2-(3-(1-methyl-1H-pyrazol-5-yl)phenyl)acetamide] | 101 to 1000 nM |
| O=C(Cc1ccccc1)NC[C@H](O)CN1CCc2ccccc2C1 [Compound 55] | 101 to 1000 nM |
| O=C(CC1CCCCC1)NC[C@H](O)CN1CCc2ccccc2C1 [Compound 56] | 1000 to 10000 nM |
| O=C(Cc1ccccc1)NC[C@@H](O)CN1CCc2ccccc2C1 [Compound 57] | 10000 to 50000 nM |
| O=C(CC1CCCCC1)NC[C@@H](O)CN1CCc2ccccc2C1 [Compound 58] | 10000 to 50000 nM |
| O=C(Cc1cccc2cccnc12)NCC(O)CN1CCc2ccccc2C1 (stereo not shown) [Compound 60, N-(3-(3,4-dihydroisoquinolin-2(1H)-yl)-2-hydroxypropyl)-2-(quinolin-8-yl)acetamide] | 101 to 1000 nM |
| Cn1cnc2ccc(NCC(=O)NCC(O)CN3CCc4ccccc4C3)cc21 (stereo not shown) [Compound 69] | 101 to 1000 nM |
| C[C@H](Oc1cccc2cccnc12)C(=O)NC[C@@H](O)CN1CCc2ccccc2C1 [Compound 72] | 1000 to 10000 nM |
| O=C(COc1ccccc1N1CCOCC1)NC[C@@H](O)CN1CCc2ccccc2C1 [Compound 78] | 101 to 1000 nM |
| O=C(COc1cccc(C(=O)N2CCOCC2)c1)NCC(O)CN1CCc2ccccc2C1 (stereo not shown) [Compound 83] | 101 to 1000 nM |
| CN1CCN(c2ccccc2OCC(=O)NC[C@@H](O)CN2CCc3ccccc3C2)CC1 [Compound 85] | 1000 to 10000 nM |
| O=C(COc1ccccc1OCCN1CCOCC1)NC[C@@H](O)CN1CCc2ccccc2C1 [Compound 87] | 1000 to 10000 nM |
| CN(C)CCOc1ccccc1OCC(=O)NC[C@@H](O)CN1CCc2ccccc2C1 [Compound 89] | 101 to 1000 nM |
| COc1ccc2cccc(OCC(=O)NC[C@H](O)CN3CCc4ccccc4C3)c2n1 [Compound 97] | 101 to 1000 nM |
| CN(C)c1ccc2cccc(OCC(=O)NC[C@H](O)CN3CCc4ccccc4C3)c2n1 [Compound 104] | 101 to 1000 nM |
| CS(=O)(=O)N1CCN(c2ccccc2OCC(=O)NCC(O)CN2CCc3ccccc3C2)CC1 (stereo not shown) [Compound 106] | 101 to 1000 nM |
| CNC(=O)c1ccccc1OCC(=O)NCC(O)CN1CCc2ccccc2C1 (stereo not shown) [Compound 112] | 101 to 1000 nM |
